Reference: the supplement of paper PMC10307832

Tests used:
Experiment in all cases: relative viability (nuclei count vs DMSO), 5 days (fraction); higher = more cells survive
Bexarotene + Tozasertib = compound: C=C(c1ccc(C(=O)O)cc1)c1cc2c(cc1C)C(C)(C)CCC2(C)C [Bexarotene] + Cc1cc(Nc2cc(N3CCN(C)CC3)nc(Sc3ccc(NC(=O)C4CC4)cc3)n2)n[nH]1 [Tozasertib] (partner 0.1 µM)
Method in brief: (§1)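 Relative viability is defined as nuclei in treated wells over nuclei in vehicle wells. Duplicate plates were run and medians reported. Lung cancer cell lines in 1536-well plates were dosed by pin tool one day after seeding, with one drug or with a fixed anchor-drug dose plus five library-drug doses (not always all listed) in √10 steps, and nuclei were counted after 5 days.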

Bexarotene + Dasatinib = compound: C=C(c1ccc(C(=O)O)cc1)c1cc2c(cc1C)C(C)(C)CCC2(C)C [Bexarotene] + Cc1nc(Nc2ncc(C(=O)Nc3c(C)cccc3Cl)s2)cc(N2CCN(CCO)CC2)n1 [Dasatinib] (partner 0.075 µM)
Method in brief: as §1

Bexarotene + Luminespib = compound: C=C(c1ccc(C(=O)O)cc1)c1cc2c(cc1C)C(C)(C)CCC2(C)C [Bexarotene] + CCNC(=O)c1noc(-c2cc(C(C)C)c(O)cc2O)c1-c1ccc(CN2CCOCC2)cc1 [Luminespib] (partner 0.01 µM)
Method in brief: as §1

Bexarotene + Phenformin = compound: C=C(c1ccc(C(=O)O)cc1)c1cc2c(cc1C)C(C)(C)CCC2(C)C [Bexarotene] + N=C(N)NC(=N)NCCc1ccccc1 [Phenformin] (partner 250 µM)
Method in brief: as §1

Bexarotene + OSI-027 = compound: C=C(c1ccc(C(=O)O)cc1)c1cc2c(cc1C)C(C)(C)CCC2(C)C [Bexarotene] + COc1cccc2cc(-c3nc([C@H]4CC[C@H](C(=O)O)CC4)n4ncnc(N)c34)[nH]c12 [OSI-027] (partner 0.5 µM)
Method in brief: as §1

Bexarotene + Foretinib = compound: C=C(c1ccc(C(=O)O)cc1)c1cc2c(cc1C)C(C)(C)CCC2(C)C [Bexarotene] + COc1cc2c(Oc3ccc(NC(=O)C4(C(=O)Nc5ccc(F)cc5)CC4)cc3F)ccnc2cc1OCCCN1CCOCC1 [Foretinib] (partner 0.25 µM)
Method in brief: as §1

Bexarotene = compound: C=C(c1ccc(C(=O)O)cc1)c1cc2c(cc1C)C(C)(C)CCC2(C)C [Bexarotene]
Method in brief: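 Viability was read as treated-well nuclei divided by vehicle-well nuclei, using the median across plates. Lung cancer cell lines in 1536-well plates were kept overnight at 37 °C, pinned with five √10-spaced library-drug doses, and after 5 days were Hoechst-stained, imaged at 4× and counted in MetaXpress. Plates passed only with control CV below 25% and at least one doubling.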

Bexarotene + Vorinostat = compound: C=C(c1ccc(C(=O)O)cc1)c1cc2c(cc1C)C(C)(C)CCC2(C)C [Bexarotene] + O=C(CCCCCCC(=O)Nc1ccccc1)NO [Vorinostat] (partner 1 µM)
Method in brief: as §1

Bexarotene + Pemetrexed = compound: C=C(c1ccc(C(=O)O)cc1)c1cc2c(cc1C)C(C)(C)CCC2(C)C [Bexarotene] + Nc1nc2[nH]cc(CCc3ccc(C(=O)N[C@@H](CCC(=O)O)C(=O)O)cc3)c2c(=O)[nH]1 [Pemetrexed] (partner 0.2 µM)
Method in brief: as §1

Bexarotene + AZD7762 = compound: C=C(c1ccc(C(=O)O)cc1)c1cc2c(cc1C)C(C)(C)CCC2(C)C [Bexarotene] + NC(=O)Nc1cc(-c2cccc(F)c2)sc1C(=O)N[C@H]1CCCNC1 [AZD7762] (partner 0.2 µM)
Method in brief: as §1

Bexarotene + Trametinib = compound: C=C(c1ccc(C(=O)O)cc1)c1cc2c(cc1C)C(C)(C)CCC2(C)C [Bexarotene] + CC(=O)Nc1cccc(-n2c(=O)n(C3CC3)c(=O)c3c(Nc4ccc(I)cc4F)n(C)c(=O)c(C)c32)c1 [Trametinib] (partner 0.02 µM)
Method in brief: as §1

Bexarotene + Decitabine = compound: C=C(c1ccc(C(=O)O)cc1)c1cc2c(cc1C)C(C)(C)CCC2(C)C [Bexarotene] + Nc1ncn([C@H]2C[C@H](O)[C@@H](CO)O2)c(=O)n1 [Decitabine] (partner 2 µM)
Method in brief: as §1

Bexarotene + Olaparib = compound: C=C(c1ccc(C(=O)O)cc1)c1cc2c(cc1C)C(C)(C)CCC2(C)C [Bexarotene] + O=C(c1cc(Cc2n[nH]c(=O)c3ccccc23)ccc1F)N1CCN(C(=O)C2CC2)CC1 [Olaparib] (partner 8 µM)
Method in brief: as §1

Bexarotene + Palbociclib = compound: C=C(c1ccc(C(=O)O)cc1)c1cc2c(cc1C)C(C)(C)CCC2(C)C [Bexarotene] + CC(=O)c1c(C)c2cnc(Nc3ccc(N4CCNCC4)cn3)nc2n(C2CCCC2)c1=O [Palbociclib] (partner 0.5 µM)
Method in brief: as §1

NCI-H1623 was tested, and the relative viability (Bexarotene + Tozasertib; first compound 0.08 µM) was 0.452, the relative viability (Bexarotene + Tozasertib; first compound 0.253 µM) was 0.431 and the relative viability (Bexarotene + Tozasertib; first compound 0.8 µM) was 0.333. The relative viability (Bexarotene + Tozasertib; first compound 2.53 µM) was 0.424, the relative viability (Bexarotene + Tozasertib; first compound 8 µM) was 0.416 and the relative viability (Bexarotene + Dasatinib; first compound 0.08 µM) was 0.587. It also gave a relative viability (Bexarotene + Dasatinib; first compound 0.253 µM) of 0.501, a relative viability (Bexarotene + Dasatinib; first compound 0.8 µM) of 0.568 and a relative viability (Bexarotene + Dasatinib; first compound 2.53 µM) of 0.579. For the same cell line, the relative viability (Bexarotene + Dasatinib; first compound 8 µM) was 0.531, the relative viability (Bexarotene + Luminespib; first compound 0.08 µM) was 0.459 and the relative viability (Bexarotene + Luminespib; first compound 0.253 µM) was 0.476. The relative viability (Bexarotene + Luminespib; first compound 0.8 µM) was 0.481, the relative viability (Bexarotene + Luminespib; first compound 2.53 µM) was 0.441 and the relative viability (Bexarotene + Luminespib; first compound 8 µM) was 0.543. The relative viability (Bexarotene + Phenformin; first compound 0.08 µM) was 0.661, the relative viability (Bexarotene + Phenformin; first compound 0.253 µM) was 0.598 and the relative viability (Bexarotene + Phenformin; first compound 0.8 µM) was 0.528. The relative viability (Bexarotene + Phenformin; first compound 2.53 µM) was 0.612, the relative viability (Bexarotene + Phenformin; first compound 8 µM) was 0.504 and the relative viability (Bexarotene + OSI-027; first compound 0.08 µM) was 0.439. It also gave a relative viability (Bexarotene + OSI-027; first compound 0.253 µM) of 0.441, a relative viability (Bexarotene + OSI-027; first compound 0.8 µM) of 0.363 and a relative viability (Bexarotene + OSI-027; first compound 2.53 µM) of 0.407. For the same cell line, the relative viability (Bexarotene + OSI-027; first compound 8 µM) was 0.334, the relative viability (Bexarotene + Foretinib; first compound 0.08 µM) was 0.836 and the relative viability (Bexarotene + Foretinib; first compound 0.253 µM) was 0.813. It also gave a relative viability (Bexarotene + Foretinib; first compound 0.8 µM) of 0.805, a relative viability (Bexarotene + Foretinib; first compound 2.53 µM) of 0.848 and a relative viability (Bexarotene + Foretinib; first compound 8 µM) of 0.773. The relative viability (Bexarotene; 0.08 µM) was 0.751, the relative viability (Bexarotene; 0.253 µM) was 0.849 and the relative viability (Bexarotene; 0.8 µM) was 0.815. The relative viability (Bexarotene; 2.53 µM) was 0.854 and the relative viability (Bexarotene; 8 µM) was 0.806.
Cell Line NCI-H1648 has a relative viability (Bexarotene + Vorinostat; first compound 0.08 µM) of 0.477, a relative viability (Bexarotene + Vorinostat; first compound 0.253 µM) of 0.422 and a relative viability (Bexarotene + Vorinostat; first compound 0.8 µM) of 0.455. The relative viability (Bexarotene + Vorinostat; first compound 2.53 µM) was 0.518, the relative viability (Bexarotene + Vorinostat; first compound 8 µM) was 0.639 and the relative viability (Bexarotene + Tozasertib; first compound 0.08 µM) was 0.453. For the same cell line, the relative viability (Bexarotene + Tozasertib; first compound 0.253 µM) was 0.559, the relative viability (Bexarotene + Tozasertib; first compound 0.8 µM) was 0.307 and the relative viability (Bexarotene + Tozasertib; first compound 2.53 µM) was 0.492. The relative viability (Bexarotene + Tozasertib; first compound 8 µM) was 0.384, the relative viability (Bexarotene + Pemetrexed; first compound 0.08 µM) was 0.897 and the relative viability (Bexarotene + Pemetrexed; first compound 0.253 µM) was 0.738. For the same cell line, the relative viability (Bexarotene + Pemetrexed; first compound 0.8 µM) was 0.676, the relative viability (Bexarotene + Pemetrexed; first compound 2.53 µM) was 0.585 and the relative viability (Bexarotene + Pemetrexed; first compound 8 µM) was 0.619. The relative viability (Bexarotene + AZD7762; first compound 0.08 µM) was 0.615, the relative viability (Bexarotene + AZD7762; first compound 0.253 µM) was 0.57 and the relative viability (Bexarotene + AZD7762; first compound 0.8 µM) was 0.623. The relative viability (Bexarotene + AZD7762; first compound 2.53 µM) was 0.695, the relative viability (Bexarotene + AZD7762; first compound 8 µM) was 0.627 and the relative viability (Bexarotene + Trametinib; first compound 0.08 µM) was 0.448. It also gave a relative viability (Bexarotene + Trametinib; first compound 0.253 µM) of 0.483, a relative viability (Bexarotene + Trametinib; first compound 0.8 µM) of 0.559 and a relative viability (Bexarotene + Trametinib; first compound 2.53 µM) of 0.469. It also gave a relative viability (Bexarotene + Trametinib; first compound 8 µM) of 0.529, a relative viability (Bexarotene + Decitabine; first compound 0.08 µM) of 0.489 and a relative viability (Bexarotene + Decitabine; first compound 0.253 µM) of 0.409. It also gave a relative viability (Bexarotene + Decitabine; first compound 0.8 µM) of 0.451, a relative viability (Bexarotene + Decitabine; first compound 2.53 µM) of 0.36 and a relative viability (Bexarotene + Decitabine; first compound 8 µM) of 0.465. For the same cell line, the relative viability (Bexarotene + Olaparib; first compound 0.08 µM) was 0.927, the relative viability (Bexarotene + Olaparib; first compound 0.253 µM) was 1.34 and the relative viability (Bexarotene + Olaparib; first compound 0.8 µM) was 0.712. It also gave a relative viability (Bexarotene + Olaparib; first compound 2.53 µM) of 0.766, a relative viability (Bexarotene + Olaparib; first compound 8 µM) of 0.685 and a relative viability (Bexarotene + OSI-027; first compound 0.08 µM) of 0.272. The relative viability (Bexarotene + OSI-027; first compound 0.253 µM) was 0.262, the relative viability (Bexarotene + OSI-027; first compound 0.8 µM) was 0.27 and the relative viability (Bexarotene + OSI-027; first compound 2.53 µM) was 0.225. It also gave a relative viability (Bexarotene + OSI-027; first compound 8 µM) of 0.255, a relative viability (Bexarotene + Palbociclib; first compound 0.08 µM) of 0.222 and a relative viability (Bexarotene + Palbociclib; first compound 0.253 µM) of 0.313. It also gave a relative viability (Bexarotene + Palbociclib; first compound 0.8 µM) of 0.229, a relative viability (Bexarotene + Palbociclib; first compound 2.53 µM) of 0.235 and a relative viability (Bexarotene + Palbociclib; first compound 8 µM) of 0.23. For the same cell line, the relative viability (Bexarotene; 0.08 µM) was 1.02, the relative viability (Bexarotene; 0.253 µM) was 0.971 and the relative viability (Bexarotene; 0.8 µM) was 0.645. It also gave a relative viability (Bexarotene; 2.53 µM) of 0.735 and a relative viability (Bexarotene; 8 µM) of 0.708.
